Data on 18 compounds can be found in PMC7178834, “Antiproliferative benzothiazoles incorporating a trimethoxyphenyl scaffold as novel colchicine site tubulin polymerisation inhibitors” (Journal of Enzyme Inhibition and Medicinal Chemistry, 2020).

The test system of series [1] is human cervical cancer cell line ME-180. Details: method as in PMID 24332497. To be noted: read-out: Cytotoxicity IC50, ME-180; cited from earlier work.
Series [2] relates to PC3 cells. As to the kind of experiment: MTT antiproliferative assay, PC3 cells. In kind it is cell-based. To be noted: Homo sapiens, PC-3. The protocol: (§1) PC3, C42B, 22RV1, and LNCAP cell lines were cultured in an atmosphere containing 5% CO2 at 37 °C, with RPMI-1640 medium with 10% foetal bovine serum, 100 U/ml penicillin and 0.1 mg/ml streptomycin. Cells were seeded at a density of 1500 per well in 96-well plates for 72 h. Then, 20 μL MTT (thiazolyl blue tetrazolium bromide) solution was added to each well, and incubated for 4 h at 37 °C. 150 μL DMSO was added to each well to dissolve the formazan after removing the liquid, the absorbance was determined at 570 nm.
(§2) Compound 12a was further examined for possible cytotoxicity against RWPE-1 (normal human prostatic cell line). […] To evaluate its antiproliferative activity against other prostate cancer cell lines, C42B, LNCAP and PC3 cells were selected to perform MTT assay.

The subject of series [3] is 22RV1 cells. As to the kind of experiment: MTT antiproliferative assay, 22RV1 cells. In kind it is cell-based. The note with it: for IC50: MTT assay, exposure for 72 h. The protocol:
as §1
To discovery novel anti-prostate cancer agents and tubulin polymerisation inhibitors, we evaluated the antiproliferative activity of all benzothiazole derivatives 9a∼9k and 12a∼12d against a prostate cancer cell line 22RV1 using the 3–(4,5-dimethyl-2-thiazolyl)-2,5-diphenyl-2-H-tetrazolium bromide (MTT) assay. Based on previous references, [5]-fluorouracil (5-Fu) and was usually selected as a reference drug in the MTT assay to evaluate the antiproliferative activity of synthetic benzothiazole derivatives[26]^,[27]. Therefore, 5-Fu was used as the control drug in this work. In addition, compound 4 was also the control drug to compare the antiproliferative activity.

The test system of series [4] is LNCAP cells. In words: MTT antiproliferative assay, LNCAP cells. Format: cell-based. The note with it: Homo sapiens. The protocol: as §1, §2
For orientation: Formazan colour is commonly taken as a measure of viable cells.

The subject of series [5] is tubulin. In words: In vitro tubulin polymerisation assay. Format: biochemical. To be noted: tubulin 5.6 mg/ml in PEM buffer, read-out: Tubulin polymerisation inhibition IC50. How it is done:
Tubulin (5.6 mg/ml) was resuspended in PEM buffer (containing 80 mM PIPES, […], 1 mM EGTA, 10.2% glycerol, 0.5 mM MgCl2) and then was preincubated with compound 12a, colchicine or vehicle DMSO on ice. The reaction was monitored by a spectrophotometer in […] at 420 nm (excitation wavelength is 340 nm).
The in vitro tubulin polymerisation inhibition activity of compound 12a was evaluated because of its best antiproliferative activity results among all benzothiazole hybrids. When tubulin was incubated with the tested compound 12a, the increased tendency of the fluorescence intensity was obviously slowed down compared with the control.

Series [6] deals with C42B cells. In words: MTT antiproliferative assay, C42B cells. In kind it is cell-based. How it is done: as §1, §2
The test system of series [7] is 22RV1 cells. In words: DAPI staining, 22RV1 cells. Format: cell-based. The note with it: 22RV1 cells, 1, 2 and 4 μM, 48 h. How it is done:
(§3) Cells were seeded on a 6-well plate (2 × 10^5/well) and treated with the test compound after the incubation for 24 h. Then, cells were stained by DAPI (4′,6-diamidino-2-phenylindole) in the dark for 30 min.

The subject of series [8] is microtubule network in PC3 cells. In words: Immunofluorescence staining of microtubules in PC3 cells. In kind it is cell-based. To be noted: 48 h. How it is done:
PC3 cells were seeded on the slices and incubated overnight. Then, cells were treated with different concentrations of 12a. After 48 h, slices were fixed by 4% paraformaldehyde for 15 min after washed by PBS for 3 times. 0.5% Triton-X-100 was added and shaked for 20 min. 0.1% BSA was used to block for 30 min and then removed. The slices were added β-tubulin antibody (1:100) and incubated overnight. Then slices were washed by PBST 3 times, bind with secondary antibody with FITC signal (1:500) in a dark. DAPI was used to stain for 3 min and then removed. After that, images were captured by Laser scanning confocal microscope (Nikon, Japan).
As the microtubule system played an important role in the maintenance of cell shape and basic cellular functions, an immunofluorescence staining assay was performed to study whether benzothiazole hybrid 12a could disrupt the microtubule dynamics in living cells.

Series [9] relates to PC3 cells. In words: DAPI staining, PC3 cells. The note with it: PC3 cells, 1, 2 and 4 μM, 48 h. Format: cell-based. How it is done:
as §3

Series [10] in a line: Cytotoxicity against normal prostatic cell line RWPE-1. Format: cell-based. The note with it: RWPE-1 normal prostatic cells; normal human prostatic cell line. The protocol: as §1, §2
Series [11] deals with colchicine-binding site of β-tubulin. In words: EBI competition assay in PC3 cells. Format: cell-based. To be noted: preincubation at 10 μM, Western blot. How it is done: 6-Well plates were seeded with PC3 cells for 24 h. Then, cells were incubated with compound 12a, colchicine or DMSO for 2 h and afterward treated with EBI ([…]) for 2 h. Then, the cells were harvested and lysed. Cell extracts were used for Western blotting analysis.
(§4) Cellular protein lysates were denatured in loading buffer at 100 °C prior to adding into SDS-PAGE. Proteins were transferred to nitrocellulose membranes, probed with indicated antibodies, and visualised by an enhanced chemiluminescence detection system. The western blotting bands were semi-quantified using Image J and adjusted for loading control.
In order to evaluate whether benzothiazole hybrid 12a directly binds to tubulin at the colchicine binding site, we carried out N,N′-ethylenebis(iodoacetamide) (EBI) competition assay in PC3 cells according to previously published references[29]^,[30]. EBI is an alkylating agent that has the property to specifically cross-link the Cys239 and the Cys354 residues of β-tubulin involved in the colchicine-binding site[31]. The occupancy of colchicine-binding site by tubulin polymerisation inhibitors could inhibit the formation of the EBI: β-tubulin adduct.
A general note: In western blotting, separated proteins are transferred to a membrane and probed.

For series [12], the system named is apoptosis-related proteins (Bcl-2 and Cleaved-parp). As to the kind of experiment: Western blot of apoptosis-related proteins, 22RV1 cells. Format: cell-based. To be noted: concentration-dependent. The protocol:
as §4
(§5) Bcl-2 family proteins are key regulators of apoptosis and overexpression of the prominent pro-survival Bcl-2 family members like Bcl-2 is a common feature responsible for deregulation of apoptosis in prostate cancer cells. In order to investigate the apoptosis effects of compound 12a, the expression of apoptosis-related proteins (Bcl-2 and Cleaved-parp) were tested. As shown in the Figure 6(B), the expression level of Bcl-2 was decreased and the expression level of Cleaved-parp was increased in a concentration-dependent manner against prostate cancer (22RV1 cells and PC3 cells).

The test system is the same in series [13]. As to the kind of experiment: Western blot of apoptosis-related proteins, PC3 cells. In kind it is cell-based. The note with it: concentration-dependent. How it is done:
as §4, §5

Some results are limits rather than exact numbers.

Regarding `CCOc1ccc2nc(N3CN(c4ccccc4)c4ccccc4C3=O)sc2c1` [Compound 3], in series [1], the IC50 – broadly, the concentration that inhibits the measured activity by half – is 4.01 µM.

Turning to `COc1ccc(CN(C(=O)CSc2nc3ccccc3o2)c2cc(OC)c(OC)c(OC)c2)cc1` [Compound 4, reference compound], the IC50 worked out at 3.53 µM in series [2]; 6.48 ± 0.25 µM in [3] (Homo sapiens, 22Rv1); 10 µM in series [4].

In series [3], `O=c1[nH]cc(F)c(=O)[nH]1` [Compound 5-FU, [5]-fluorouracil, reference compound] returned a half-inhibitory concentration (IC50) of 18.3 ± 1.27 µM.

Turning to `COc1cc(N(Cc2ccc(F)cc2)C(=O)CSc2nc3ccccc3s2)cc(OC)c1OC` [Compound 9a, 2-(Benzo[d]thiazol-2-ylthio)-N-(4-fluorobenzyl)-N-(3,4,5-trimethoxyphenyl)acetamide], the half-inhibitory concentration (IC50) in [3] (Homo sapiens, 22Rv1, 72 h) turned out to be 16.2 ± 0.84 µM.

As to `COc1cc(N(Cc2cccc(Cl)c2)C(=O)CSc2nc3ccccc3s2)cc(OC)c1OC` [Compound 9b, 2-(Benzo[d]thiazol-2-ylthio)-N-(3-chlorobenzyl)-N-(3,4,5-trimethoxyphenyl)acetamide], the “Fold activity loss when p-Br replaced with m-Cl (9d vs. 9b)” value in series [3] (22RV1 cells, ratio of IC50 values) is reported as “over 3 fold”. Further, the IC50 in series [3] (Homo sapiens, 22Rv1, 72 h) is more than 12 µM; in [3] it was 19.1 ± 1.15 µM.

`COc1cc(N(Cc2ccc(Cl)cc2)C(=O)CSc2nc3ccccc3s2)cc(OC)c1OC` [Compound 9c, 2-(Benzo[d]thiazol-2-ylthio)-N-(4-chlorobenzyl)-N-(3,4,5-trimethoxyphenyl)acetamide]: the IC50 in [3] (Homo sapiens, 22Rv1, 72 h) is more than 12 µM; in series [3], 12.2 ± 0.58 µM.

As for `COc1cc(N(Cc2ccc(Br)cc2)C(=O)CSc2nc3ccccc3s2)cc(OC)c1OC` [Compound 9d, 2-(Benzo[d]thiazol-2-ylthio)-N-(4-bromobenzyl)-N-(3,4,5-trimethoxyphenyl)acetamide], the IC50 in series [3] (Homo sapiens, 22Rv1, 72 h) is 6.2 ± 0.71 µM.

With `COc1cc(N(Cc2ccc(C)cc2)C(=O)CSc2nc3ccccc3s2)cc(OC)c1OC` [Compound 9e, 2-(Benzo[d]thiazol-2-ylthio)-N-(4-methylbenzyl)-N-(3,4,5-trimethoxyphenyl)acetamide], the 50% inhibitory concentration (IC50) in series [3] (Homo sapiens, 22Rv1, 72 h) turned out to be 8.25 ± 0.43 µM.

With `COc1cc(N(Cc2ccccc2)C(=O)CSc2nc3ccccc3s2)cc(OC)c1OC` [Compound 9f, 2-(Benzo[d]thiazol-2-ylthio)-N-benzyl-N-(3,4,5-trimethoxyphenyl)acetamide], inhibition in [3] (Homo sapiens, 22Rv1, 72 h) was half-maximal at 9.06 ± 0.17 µM (IC50).

Compound `COc1cccc(CN(C(=O)CSc2nc3ccccc3s2)c2cc(OC)c(OC)c(OC)c2)c1` [Compound 9g, 2-(Benzo[d]thiazol-2-ylthio)-N-(3-methoxybenzyl)-N-(3,4,5-trimethoxyphenyl)acetamide] gave an IC50 in series [3] (Homo sapiens, 22Rv1, 72 h) of 7.37 ± 0.56 µM.

In series [3] (Homo sapiens, 22Rv1, 72 h), `COc1ccc(CN(C(=O)CSc2nc3ccccc3s2)c2cc(OC)c(OC)c(OC)c2)cc1` [Compound 9h, 2-(Benzo[d]thiazol-2-ylthio)-N-(4-methoxybenzyl)-N-(3,4,5-trimethoxyphenyl)acetamide] came in with an IC50 of 5.24 µM.

`COc1ccc(CN(C(=O)CSc2nc3ccccc3s2)c2ccc(C)cc2)cc1` [Compound 9i, 2-(Benzo[d]thiazol-2-ylthio)-N-(4-methoxybenzyl)-N-(p-tolyl)acetamide] gave a 50% inhibitory concentration (IC50) in series [3] (Homo sapiens, 22Rv1, 72 h) of more than 20 µM.

In the case of `COc1ccc(CN(C(=O)CSc2nc3ccccc3s2)c2ccc(Cl)c(Cl)c2)cc1` [Compound 9j, 2-(Benzo[d]thiazol-2-ylthio)-N-(3,4-dichlorophenyl)-N-(4-methoxybenzyl)acetamide], the IC50 in [3] (Homo sapiens, 22Rv1, 72 h) was more than 20 µM.

As to `COc1ccc(CN(C(=O)CSc2nc3ccccc3s2)c2ccccc2)cc1` [Compound 9k, 2-(Benzo[d]thiazol-2-ylthio)-N-(4-methoxybenzyl)-N-phenylacetamide], the melting point – broadly, the temperature of the solid-liquid transition – was in the range of 109 to 110 °C. The IC50 in [3] (Homo sapiens, 22Rv1, 72 h) was more than 20 µM.

In the case of `COc1cc(N(Cc2c(C)noc2C)C(=O)CSc2nc3ccccc3s2)cc(OC)c1OC` [Compound 12a, 2-(Benzo[d]thiazol-2-ylthio)-N-((3,5-dimethylisoxazol-4-yl)methyl)-N-(3,4,5-trimethoxyphenyl)acetamide], the concentration for half-maximal inhibition (IC50) worked out at 2.87 µM in [5]; 2.81 µM in series [6]; 2.04 µM in [2]; 2.13 ± 0.24 µM in series [3] (Homo sapiens, 22Rv1, 72 h); 4.31 µM in [4]. In addition, the “Morphological changes (DAPI staining)” value in series [7] and in [9] was “characteristic apoptotic morphological changes were observed” throughout. The “Effect on interphase microtubules” value is “moderately depolymerised interphase microtubules” in series [8] (1 μM) and “much stronger depolymerisation effects” in series [8] (4 μM). In series [10], the IC50 at 72 h was more than 20 µM. Besides, the “Formation of the EBI: β-tubulin adduct” value in series [11] is listed as “prevented the formation of the EBI: β-tubulin adduct”. Besides, the “Expression level of Bcl-2” value in [12] and in [13] was “decreased” throughout. The “Expression level of Cleaved-parp” value in series [12] and in series [13] was “increased” each time.

Compound `COc1cc(N(Cc2ccncc2)C(=O)CSc2nc3ccccc3s2)cc(OC)c1OC` [Compound 12b, 2-(Benzo[d]thiazol-2-ylthio)-N-(pyridin-4-ylmethyl)-N-(3,4,5-trimethoxyphenyl)acetamide] had an IC50 in series [3] (Homo sapiens, 22Rv1, 72 h) of 5.09 ± 0.62 µM.

`COc1cc(N(Cc2ccc(Cl)nc2)C(=O)CSc2nc3ccccc3s2)cc(OC)c1OC` [Compound 12c, 2-(Benzo[d]thiazol-2-ylthio)-N-((6-chloropyridin-3-yl)methyl)-N-(3,4,5-trimethoxyphenyl)acetamide] came in with a half-inhibitory concentration (IC50) in series [3] (Homo sapiens, 22Rv1, 72 h) of 11.8 ± 0.91 µM.

For `COc1cc(N(Cc2ccc3ccccc3c2)C(=O)CSc2nc3ccccc3s2)cc(OC)c1OC` [Compound 12d, 2-(Benzo[d]thiazol-2-ylthio)-N-(naphthalen-2-ylmethyl)-N-(3,4,5-trimethoxyphenyl)acetamide], the IC50 in [3] (Homo sapiens, 22Rv1, 72 h) is 6.93 ± 0.46 µM.
